Measurements reported in patent US11884652B2, “Tetrazole derivatives as TRPA1 inhibitors” (Boehringer Ingelheim International GmbH, priority 2020, dated 2024).
pIC50: −log10 of the molar value.

Tests used:
human TRPA1 ion channel = biological target: T1, human TRPA1 ion channel (Homo sapiens, UniProt O75762); experiment: Assay A: TRPA1 assay (FLIPR, AITC-induced calcium, HEK293 cells); format: cell-based; conditions: read-out: hTRPA1 IC50
T1 construct: host or cells: HEK293
Procedure: A human HEK293 cell line over-expressing the human TRPA1 ion channel (Perkin Elmer, Product No. AX-004-PCL) is used as a test system for compound efficacy and potency. Compound activity is determined by measuring the effect of compounds on intracellular calcium concentration induced by AITC (Allylisothiocyanat) agonism in a FLIPRtetra system (Molecular Devices).
The cells are obtained as frozen cells in cryo-vials and stored until use at −150° C. Cells are grown in culture medium (MEM/EBSS medium with 10% FCS and 0.4 mg/ML Geneticin). […] For sub-culturing cells are detached from flasks by Versene. At the day before the assay, cells are detached, washed twice with medium (MEM/EBSS medium with 10% FCS) and 20000 cells in 20 μl/well are seeded to Poly D-Lysin biocoated 384-well plates (black, clear bottom, Cat. 356697) from Corning. Plates are incubated for 24 hours at 37° C./5% CO2 before use in the assay.
The test compounds are dissolved in 100% DMSO at a concentration of 10 mM and in a first step diluted in DMSO to a concentration of 5 mM, followed by serial dilution steps in 100% DMSO. Dilution factor and number of dilution steps may vary according to needs. Typically 8 different concentrations by 1:5 dilutions are prepared, further intermediate dilutions (1:20) of the substances are carried out with HBSS/HEPES buffer (1×HEPES, Cat. 14065 from Gibco, 20 mM HEPES, Cat. 83264 from SIGMA, 0.1% BSA Cat. 11926 from Invitrogen, pH 7.4
At the assay day cells are washed 3× with assay puffer, 20 μL buffer remaining in the wells after washing. 10 μL Ca6 kit (Cat. R8191 MolecularDevices) loading buffer in HBSS/HEPES is added to the cells and the plates are incubated with lid for 120 minutes at 37°/5% CO2. 10 μL of compound or controls in HBSS/HEPES buffer/5% DMSO from the intermediate dilution plate are carefully added to the wells. […] Finally 10 μL of the agonist AITC 50 μM dissolved in HBSS/HEPES buffer/0.05% DMSO (final concentration 10 μM) is added to the wells followed by an additional read on the FLIPRtetra device for 10 minutes. The area under the signal curve (AUC) after AITC addition is used for IC50/% inhibition calculations
Data Evaluation and Calculation:
Each assay microtiter plate contains wells with vehicle (1% DMSO) controls instead of compound as controls for AITC induced luminescence (100% CTL; high controls) and wells with vehicle controls without AITC as controls for non-specific changes in luminescence (0% CTL; low controls).
The analysis of the data is performed by the calculation of the area under signal curve of the individual wells. Based on this values the % value for the measurement of each substance concentration is calculated (AUC(sample)−AUC(low))*100/(AUC(high)−AUC(low)) using MegaLab software (in house development). The IC50 values are calculated from the % control values using MegaLab software. Calculation: [y=(ad)/(1+(x/c)^b)+d], a=low value, d=high value; x=conc M; c=IC50 M; b=hill; y=% ctrl

[1] = Assay B: Microsomal clearance; format: in vitro ADME, human; conditions: pooled liver microsomes 1 mg/ml, 1 μM compound, NADPH, 37° C.; clearance as % of hepatic blood flow
Procedure: Assay B: Microsomal Clearance:
The metabolic degradation of the test compound is assayed at 37° C. with pooled liver microsomes. The final incubation volume of 100 μl per time point contains TRIS buffer pH 7.6 at RT (0.1 M), magnesium chloride (5 mM), microsomal protein (1 mg/ml) and the test compound at a final concentration of 1 μM.
Following a short preincubation period at 37° C., the reactions are initiated by addition of beta-nicotinamide adenine dinucleotide phosphate, reduced form (NADPH, 1 mM) and terminated by transferring an aliquot into solvent after different time points (0, 5, 15, 30, 60 min). Additionally, the NADPH-independent degradation is monitored in incubations without NADPH, terminated at the last time point. The [%] remaining test compound after NADPH independent incubation is reflected by the parameter c(control) (metabolic stability). The quenched incubations are pelleted by centrifugation (10000 g, 5 min).
An aliquot of the supernatant is assayed by LC-MS/MS for the amount of parent compound. The half-life (t½ INVITRO) is determined by the slope of the semilogarithmic plot of the concentration-time profile.
The intrinsic clearance (CL_[…]) is calculated by considering the amount of protein in the incubation: CL_[…] [μl/min/mg protein]=(Ln 2/(half-life [min]*protein content [mg/ml]))*1000 CL_[…]_INVIVO [ml/min/kg]=(CL_[…] [μL/min/mg protein]×MPPGL [mg protein/g liver]×liver factor [g/kg bodyweight])/1000 Qh[%]=CL[ml/min/kg]/hepatic blood flow [ml/min/kg])
(§1) Hepatocellularity, human: 120×10e6 cells/g liver
(§2) Liver factor, human: 25.7 g/kg bodyweight
(§3) Blood flow, human: 21 ml/(min×kg)

[2] = Assay C: Hepatocyte clearance; format: in vitro ADME, human; conditions: hepatocyte suspension, 1 μM compound, 6 h; predicted clearance as % of hepatic blood flow
Procedure: Assay C: Hepatocyte Clearance
The metabolic degradation of the test compound is assayed in a hepatocyte suspension. Hepatocytes (cryopreserved) are incubated in Dulbecco's modified eagle medium (supplemented with 3.5 μg glucagon/500 mL, 2.5 mg insulin/500 mL and 3.75 mg/500 mL hydrocortison) containing 5% or 50% species serum.
The cells are incubated for six hours (incubator, orbital shaker) and samples ([…]) are taken at 0, 0.5, 1, 2, 4 and 6 hours. Samples are transferred into acetonitrile and pelleted by centrifugation (5 min). The supernatant is transferred to a new 96-deepwell plate, evaporated under nitrogen and resuspended.
Decline of Parent Compound is Analyzed by HPLC-MS/MS
CLint is calculated as follows CL_[…]=Dose/AUC=(C0/CD)/(AUD+clast/k)×1000/60. C0: initial concentration in the incubation [μM], CD: cell density of vital cells [10e6 cells/mL], AUD: area under the data [μM×h], clast: concentration of last data point [μM], k: slope of the regression line for parent decline [h−1].
The calculated in vitro hepatic intrinsic clearance can be scaled up to the intrinsic in vivo hepatic Clearance and used to predict hepatic in vivo blood clearance (CL) by the use of a liver model (well stirred model). CL_[…]_INVIVO [ml/min/kg]=(CL_[…] [μL/min/10e6 cells]×hepatocellularity [10e6 cells/g liver]×liver factor [g/kg bodyweight])/1000 CL[ml/min/kg]=CL_[…]_INVIVO [ml/min/kg]×hepatic blood flow [ml/min/kg]/(CL_[…]_INVIVO [ml/min/kg]+hepatic blood flow [ml/min/kg]) Qh[%]=CL[ml/min/kg]/hepatic blood flow [ml/min/kg])
as §1, §2, §3

T1 sequence (O75762 whole entry): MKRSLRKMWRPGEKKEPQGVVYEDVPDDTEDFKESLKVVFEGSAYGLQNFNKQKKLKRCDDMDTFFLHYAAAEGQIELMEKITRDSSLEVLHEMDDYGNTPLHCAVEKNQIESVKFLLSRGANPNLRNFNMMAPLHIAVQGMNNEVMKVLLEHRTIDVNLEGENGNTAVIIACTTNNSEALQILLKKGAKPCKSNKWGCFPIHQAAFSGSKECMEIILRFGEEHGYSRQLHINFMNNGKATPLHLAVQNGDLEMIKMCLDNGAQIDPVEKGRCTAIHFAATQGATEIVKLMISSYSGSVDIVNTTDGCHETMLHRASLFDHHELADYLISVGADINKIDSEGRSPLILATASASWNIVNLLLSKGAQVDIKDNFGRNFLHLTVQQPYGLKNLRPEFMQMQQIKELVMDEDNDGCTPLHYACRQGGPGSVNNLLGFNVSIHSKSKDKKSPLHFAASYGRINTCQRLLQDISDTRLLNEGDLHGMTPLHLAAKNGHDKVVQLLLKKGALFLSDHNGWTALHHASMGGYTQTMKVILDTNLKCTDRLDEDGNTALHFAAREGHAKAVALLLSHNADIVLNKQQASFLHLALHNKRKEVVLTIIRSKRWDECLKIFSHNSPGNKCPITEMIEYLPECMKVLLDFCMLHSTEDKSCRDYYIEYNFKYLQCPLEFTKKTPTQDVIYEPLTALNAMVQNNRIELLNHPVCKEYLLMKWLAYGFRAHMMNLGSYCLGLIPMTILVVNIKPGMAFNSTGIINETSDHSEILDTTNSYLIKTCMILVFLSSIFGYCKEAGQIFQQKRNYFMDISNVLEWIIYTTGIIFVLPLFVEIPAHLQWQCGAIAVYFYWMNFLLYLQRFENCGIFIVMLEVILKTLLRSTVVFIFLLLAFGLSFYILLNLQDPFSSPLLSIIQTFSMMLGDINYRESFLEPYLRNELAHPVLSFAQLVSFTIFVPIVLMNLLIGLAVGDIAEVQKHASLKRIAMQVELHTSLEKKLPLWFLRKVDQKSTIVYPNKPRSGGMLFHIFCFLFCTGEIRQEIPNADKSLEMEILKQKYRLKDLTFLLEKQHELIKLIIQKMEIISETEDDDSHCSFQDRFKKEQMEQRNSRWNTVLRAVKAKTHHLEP

| pIC50 (human TRPA1 ion channel) | human LM [% Qh] [1] [% Qh] | human Hepatocytes [% Qh] [2] [% Qh] | SMILES |
| --- | --- | --- | --- |
| 7.40 | <23 | <4 | Cn1c(=O)c(C(N)=O)cn(Cc2nnn(C[C@H](O)c3ccc(Cl)cc3)n2)c1=O [Example 1, 1-({2-[(2R)-2-(4-chlorophenyl)-2-hydroxyethyl]-2H-1,2,3,4-tetrazol-5-yl}methyl)-3-methyl-2,4-dioxo-1,2,3,4-tetrahydropyrimidine-5-carboxamide] |
| 6.59 | <23 | 15 | COCCn1c(=O)c(C(N)=O)cn(Cc2nnn(C[C@H](O)c3ccc(Cl)cc3)n2)c1=O [Example 21] |
| 6.94 | 57 | 28 | Cn1c(=O)c(C(=O)NCCF)cn(Cc2nnn(C[C@H](O)c3ccc(Cl)cc3)n2)c1=O [Example 33] |
| 7.48 | 38 | 39 | NC(=O)c1cn(Cc2nnn(C[C@H](O)c3ccc(Cl)cc3)n2)c(=O)n(C2CCC2)c1=O [Example 18] |
| 7.14 | <23 | 7 | Cn1c(=O)c(C(N)=O)cn(Cc2nnn(C[C@H](O)c3cc4ccccc4o3)n2)c1=O [Example 9] |
| 6.98 | <23 | <4 | Cn1c(=O)c(C(N)=O)cn(Cc2nnn(C[C@H](O)c3ccc4c(c3)OCO4)n2)c1=O [Example 11] |
| 7.00 | 52 | 21 | Cn1ccnc1CNC(=O)c1cn(Cc2nnn(C[C@H](O)c3ccc(Cl)cc3)n2)c(=O)n(C)c1=O [Example 26] |
| 6.53 | 43 | 44 | CCNC(=O)c1cn(Cc2nnn(C[C@H](O)c3ccc(Cl)cc3)n2)c(=O)n(C)c1=O [Example 34] |
| 7.74 | <23 | 13 | Cn1c(=O)c(C(N)=O)cn(Cc2nnn(C[C@H](O)c3cc4ccccc4s3)n2)c1=O [Example 2] |
| 6.70 | <23 | 14 | Cn1c(=O)c(C(N)=O)cn(Cc2nnn(C[C@H](O)c3cc4cccc(F)c4o3)n2)c1=O [Example 15] |
